Assay results: US11612560B2, “Treatment of Raynaud's phenomenon by inhibition of transient receptor potential melastatin-8 (TRPM-8)” (The University of Toledo, priority 2015, dated 2023)
Entries after “also recorded” stand apart in the source; their conditions may differ.

What was measured:
[1] = target: T1, TRPM8 (Homo sapiens, UniProt Q7Z2W7); experiment: Intracellular calcium (Ca2+ influx) in MVEC, Fluo-4AM microfluorometry; assay type: cell-based
T1 construct: Human MVEC express functional TRPM8; endogenous in cells; host or cells: human microvascular endothelial cells (normal MVEC and SSc-MVEC)
Procedure: FIG. 2: Pharmacological activation of TRPM8 in human microvascular endothelial cells. […] ATP was used as the positive control.
FIG. 3: Effects of menthol on intracellular calcium level in NL-MVECs and SSc-MVECs. Cells were loaded with 2 μM calcium indicator dye Fluo-4AM for 1 hour and treated with menthol with and without capsazepine for 10 minutes and then observed under microscope.
To evaluate the functional role of TRPM8 in MVECs, the intracellular calcium ([Ca^2+]) influx into MVEC by Ca^2+ was evaluated by microfluorometry studies in response to the addition of menthol or exposure to cold, which are known to activate TRPM8 (FIG. 2).
The effect of menthol is abrogated by the use of Capsazepine, a TRPM8 receptor inhibitor. These findings indicate that TRPM8 mediates functional effects in MVEC that are mediated by calcium influx, which is antagonized by the use of Capsazepine.

[2] = Storage stability of capsazepine; assay type: physicochemical; details: long term storage recommended at −20° C.
[3] = target: T1, TRPM8; experiment: MVEC gene expression (ET1, NOS3, PTGIS mRNA) by qPCR after TRPM8 activation; assay type: cell-based
Procedure: FIGS. 4A-4C: Effects of cold exposure on ET1 (FIG. 4A), NOS3 (FIG. 4B), and PTGIS (FIG. 4C) mRNA expression. Normal MVECs were exposed to 18° C. temperature for 1 hr. The mRNA expression levels were measured by qPCR.
FIGS. 5A-5C: Effects of Menthol on ET1 (FIG. 5A), NOS3 (FIG. 5B), and PTGIS (FIG. 5C) mRNA expression. Normal endothelial cells were treated with menthol (MT) at 20 μM, 100 μM, and 500 μM with and without capsazepine (CapZ) for 24 hours. The mRNA expression levels were measured by qPCR.
The effect of exposure of normal MVEC to […] on MVEC gene expression was evaluated. Specifically, gene expression levels of NOS3, PTGIS, and ET1 in MVEC were evaluated in response to TRPM8 activation by cold exposure (FIGS. 4A-4C) and menthol (FIGS. 5A-5C) with and without Capsazepine, which is one of the TRPM8 receptor inhibitors.
Thus, the use of TRPM8 antagonists can be an effective strategy for treatment Raynaud's phenomenon in SSc patients.

[4] = tested on: patients with Raynaud's phenomenon; experiment: Cold challenge test with infrared thermography of digital blood flow after topical application; assay type: in vivo, human
Excerpt: A FLIR thermography system (Wilsonville, Oreg.) was used to evaluate blood flow in the digits in response to a cold challenge test in addition to PPG. The advantage of combining the two modalities is that both (i) a dynamic assessment of blood flow in the hands as reflected by changes in temperature in response to cold challenge tests, as well as (ii) the ability to obtain single point measurements, can be achieved.
FIGS. 8A-8B show the local application of econazole to the left index finger, and clotrimazole to the ring finger, for 15 minutes before cold exposure (FIG. 8A). […] Note the red color that depicts higher temperature of skin on the left index finger in the right panel of FIG. 8B.
Gel formulations of 3% econazole and 3% clotrimazole were prepared, then applied to the index and ring fingers (respectively) of the left hand of patients with Raynaud's phenomenon. The topical application was left for 15 minutes on the fingers, before inducing Raynaud's phenomenon by a cold challenge test. The digital blood flow was analyzed by infrared thermography.

[5] = activation of TRPM8 in MVEC by cold temperature or by menthol, qPCR

T1 sequence (Q7Z2W7 whole entry): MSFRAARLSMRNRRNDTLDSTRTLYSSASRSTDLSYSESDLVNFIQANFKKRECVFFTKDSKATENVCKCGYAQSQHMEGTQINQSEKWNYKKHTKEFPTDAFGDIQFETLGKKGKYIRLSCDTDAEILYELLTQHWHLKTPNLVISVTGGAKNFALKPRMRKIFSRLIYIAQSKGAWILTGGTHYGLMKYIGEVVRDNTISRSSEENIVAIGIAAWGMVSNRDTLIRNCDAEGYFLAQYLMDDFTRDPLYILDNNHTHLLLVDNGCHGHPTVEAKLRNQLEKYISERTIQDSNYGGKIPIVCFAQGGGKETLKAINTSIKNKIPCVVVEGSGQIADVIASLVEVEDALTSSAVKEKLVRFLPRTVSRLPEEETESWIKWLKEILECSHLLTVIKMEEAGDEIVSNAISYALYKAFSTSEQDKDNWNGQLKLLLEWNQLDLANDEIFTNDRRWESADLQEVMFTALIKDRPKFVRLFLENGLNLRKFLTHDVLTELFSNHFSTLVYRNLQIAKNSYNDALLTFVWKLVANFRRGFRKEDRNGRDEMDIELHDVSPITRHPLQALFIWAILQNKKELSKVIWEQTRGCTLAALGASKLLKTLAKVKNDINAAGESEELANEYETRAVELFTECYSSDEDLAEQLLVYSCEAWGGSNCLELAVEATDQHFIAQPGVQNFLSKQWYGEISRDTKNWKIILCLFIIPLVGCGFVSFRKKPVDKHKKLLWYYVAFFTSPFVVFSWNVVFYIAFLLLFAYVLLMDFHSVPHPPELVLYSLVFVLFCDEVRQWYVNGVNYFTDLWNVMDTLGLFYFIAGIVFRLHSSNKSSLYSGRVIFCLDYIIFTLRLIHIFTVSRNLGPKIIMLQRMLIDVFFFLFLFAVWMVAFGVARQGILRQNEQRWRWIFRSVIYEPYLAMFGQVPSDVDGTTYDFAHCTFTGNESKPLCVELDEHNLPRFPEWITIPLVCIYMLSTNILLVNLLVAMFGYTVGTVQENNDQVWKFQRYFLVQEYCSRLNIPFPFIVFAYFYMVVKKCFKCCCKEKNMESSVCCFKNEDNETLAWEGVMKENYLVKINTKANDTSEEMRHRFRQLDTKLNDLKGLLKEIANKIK

Oc1cc2c(cc1O)CN(C(=S)NCCc1ccc(Cl)cc1)CCC2 [capsazepine]
effect on menthol-induced intracellular calcium increase ([1]; menthol with capsazepine, 10 minutes, NL-MVECs and SSc-MVECs): abrogated
stability at room temperature [2]: not stable at room temperature
effect on cold/menthol-induced changes of ET1, NOS3 and PTGIS expression ([3]; MVEC, addition of TRPM8 antagonist): normalization of gene expression levels; also recorded: reversed; also recorded: near normalization

Clc1ccc(COC(Cn2ccnc2)c2ccc(Cl)cc2Cl)cc1 (centres unmarked) [econazole]
cold induced decrease in blood flow to the fingers ([4]; 3% gel on left index finger, 15 minutes before cold challenge, infrared thermography): prevented the cold induced decrease in blood flow
subjective feeling of finger coldness by patient report ([4]; after topical application and cold challenge): less finger coldness
finger temperature in thermal image after cold exposure ([4]; local application to left index finger for 15 minutes before cold exposure): warmer than the other fingers

CC1CCC(C(C)C)C(O)C1 (centres unmarked) [menthol]
Ca2+ influx in MVEC ([1]; 500 μM/L menthol, human microvascular endothelial cells): increase in Ca^2+ influx
intracellular calcium levels ([1]; SSc MVEC and healthy MVEC, Fluo-4AM, 10 minutes): increases intracellular calcium levels
NOS3 expression reduction [3, 5]: 62%
PTGIS expression reduction [3, 5]: 61%
increase in expression of ET1 [3, 5]: 2.4 folds
